Test results from patent US8895572B2, “Fused heterocyclic indane carboxamide CGRP receptor antagonists” (Merck Sharp & Dohme Corp., priority 2010, dated 2014).

Target: T1, recombinant human CL receptor/RAMP1 (Homo sapiens, UniProt O60894+Q16602)
T1 construct: expressed in transfected cells; membranes used
Experiment: Recombinant receptor binding assay (125I-hCGRP)
Settings: membranes of HEK 293 cells expressing human CL receptor/RAMP1, 10 pM 125I-hCGRP, 3 h at room temperature
Description: Human CL receptor (Genbank accession number L76380) was subcloned into the expression vector pIREShyg2 (BD Biosciences Clontech) as a 5′NheI and 3′ PmeI fragment. Human RAMP1 (Genbank accession number AJ001014) was subcloned into the expression vector pIRESpuro2 (BD Biosciences Clontech) as a 5′NheI and 3′NotI fragment. HEK 293 cells (human embryonic kidney cells; ATCC #CRL-1573) were cultured in DMEM with 4.5 g/L glucose, 1 mM sodium pyruvate and 2 mM glutamine supplemented with 10% fetal bovine serum (FBS), 100 units/mL penicillin and 100 μg/mL streptomycin, and maintained at 37° C. and 95% humidity. Cells were subcultured by treatment with 0.25% trypsin with 0.1% EDTA in HBSS. Stable cell line generation was accomplished by co-transfecting 10 μg of DNA with 30 μg Lipofectamine 2000 (Invitrogen) in 75 cm^2 flasks. CL receptor and RAMP1 expression constructs were co-transfected in equal amounts. Twenty-four hours after transfection the cells were diluted and selective medium (growth medium+300 μg/mL hygromycin and 1 μg/mL puromycin) was added the following day. A clonal cell line was generated by single cell deposition utilizing a FACS Vantage SE (Becton Dickinson). Growth medium was adjusted to 150 μg/mL hygromycin and 0.5 μg/mL puromycin for cell propagation.
Cells expressing recombinant human CL receptor/RAMP1 were washed with PBS and harvested in harvest buffer containing 50 mM HEPES, 1 mM EDTA and Complete™ protease inhibitors (Roche). The cell suspension was disrupted with a laboratory homogenizer and centrifuged at 48,000 g to isolate membranes. The pellets were resuspended in harvest buffer plus 250 mM sucrose and stored at […]. For binding assays, 20 μg of membranes were incubated in 1 mL binding buffer (10 mM HEPES, pH 7.4, 5 mM MgCl2, and 0.2% BSA) for 3 h at room temperature containing 10 pM ^125I-hCGRP (GE Healthcare) and antagonist. The assay was terminated by filtration through 96-well GFB glass fiber filter plates (PerkinElmer) that had been blocked with 0.05% polyethyleneimine. The filters were washed 3 times with ice-cold assay buffer (10 mM HEPES, pH 7.4, and 5 mM MgCl2). Scintillation fluid was added and the plates were counted on a Topcount (Packard). Non-specific binding was determined and the data analysis was carried out with the apparent dissociation constant (Ki) determined by using a non-linear least squares fitting the bound CPM data to the equation below:
[formula] Where Y is observed CPM bound, Ymax is total bound counts, Ymin is non specific bound counts, (Ymax−Ymin) is specific bound counts, % Imax is the maximum percent inhibition, % 1 min is the minimum percent inhibition, radiolabel is the probe, and the Kd is the apparent dissociation constant for the radioligand for the receptor as determined by hot saturation experiments.

T1 sequence (Q16602 23-461): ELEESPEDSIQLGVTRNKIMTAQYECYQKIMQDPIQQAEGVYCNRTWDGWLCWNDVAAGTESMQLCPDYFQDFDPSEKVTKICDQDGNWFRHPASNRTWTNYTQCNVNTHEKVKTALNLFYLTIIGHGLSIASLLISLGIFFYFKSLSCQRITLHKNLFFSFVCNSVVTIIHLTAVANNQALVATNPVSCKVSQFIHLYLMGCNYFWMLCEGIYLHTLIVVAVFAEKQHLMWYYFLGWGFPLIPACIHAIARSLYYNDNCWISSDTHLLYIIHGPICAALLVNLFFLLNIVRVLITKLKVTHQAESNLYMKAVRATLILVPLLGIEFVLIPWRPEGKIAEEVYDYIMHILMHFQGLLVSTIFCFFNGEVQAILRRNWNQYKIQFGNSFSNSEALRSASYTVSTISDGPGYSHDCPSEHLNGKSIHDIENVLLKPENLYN
T1 sequence (O60894 27-148): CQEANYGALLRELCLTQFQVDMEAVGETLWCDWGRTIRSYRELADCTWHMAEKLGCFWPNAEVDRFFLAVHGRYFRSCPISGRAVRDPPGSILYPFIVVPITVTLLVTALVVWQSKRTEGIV

| Structure (SMILES) | Ki |
| --- | --- |
| COC(C)(C)c1cnc2n1C[C@H](c1cccc(F)c1F)C[C@@H]2NC(=O)c1ccc2c(c1)C[C@@]1(C2)C(=O)Nc2ncccc21 [Example 1.8, (2R)—N-[(6S,8S)-6-(2,3-Difluorophenyl)-3-(2-methoxypropan-2-yl)-5,6,7,8-tetrahydroimidazo[1,2-a]pyridin-8-yl]-2′-oxo-1,1′,2′,3-tetrahydrospiro[indene-2,3′-pyrrolo[2,3-b]pyridine]-5-carboxamide] | 0.03 nM |
| C[C@@H]1[C@H](c2ccccc2)C[C@H](NC(=O)c2ccc3c(c2)C[C@@]2(C3)C(=O)Nc3ncccc32)c2ncc(C(C)(C)O)n21 [Example 1.20, (2R)—N-[(5R,6S,8S)-3-(2-Hydroxypropan-2-yl)-5-methyl-6-phenyl-5,6,7,8-tetrahydroimidazo[1,2-a]pyridin-8-yl]-2′-oxo-1,1′,2′,3-tetrahydrospiro[indene-2,3′-pyrrolo[2,3-b]pyridine]-5-carboxamide] | 0.27 nM |
| O=C(N[C@H]1C[C@@H](c2cccc(F)c2F)Cn2c(CC(F)(F)F)nnc21)c1ccc2c(c1)C[C@@]1(C2)C(=O)Nc2ncccc21 [Example 1.14, (2R)—N-[(6S,8S)-6-(2,3-Difluorophenyl)-3-(2,2,2-trifluoroethyl)-5,6,7,8-tetrahydr[1,2,4]triazolo[4,3-a]pyridin-8-yl]-2′-oxo-1,1′,2′,3-tetrahydrospiro[indene-2,3′-pyrrolo[2,3-b]pyridine]-5-carboxamide] | 0.07 nM |
| O=C(N[C@H]1C[C@@H](c2cccc(F)c2F)Cn2c(CC(F)(F)F)cnc21)c1ccc2c(c1)C[C@@]1(C2)C(=O)Nc2ncccc21 [Example 1.2, (2R)—N-[(6S,8S)-6-(2,3-Difluorophenyl)-3-(2,2,2-trifluoroethyl)-5,6,7,8-tetrahydroimidazo[1,2-a]pyridin-8-yl]-2′-oxo-1,1′,2′,3-tetrahydrospiro[indene-2,3′-pyrrolo[2,3-b]pyridine]-5-carboxamide] | 0.07 nM |
| C[C@@H]1[C@H](c2ccccc2)C[C@H](NC(=O)c2ccc3c(c2)C[C@@]2(C3)C(=O)Nc3ncncc32)c2ncc(C(C)(C)O)n21 [Example 2.1, (2R)—N-[(5R,6S,8S)-3-(2-Hydroxypropan-2-yl)-5-methyl-6-phenyl-5,6,7,8-tetrahydroimidazo[1,2-a]pyridin-8-yl]-6′-oxo-1,3′,6′,7′-tetrahydrospiro[indene-2,5′-pyrrolo[2,3-d]pyrimidine]-5-carboxamide] | 0.19 nM |
| C[C@@H]1[C@H](c2ccccc2)C[C@H](NC(=O)c2ccc3c(c2)C[C@@]2(C3)C(=O)Nc3ncccc32)c2nnc(C3(C(F)(F)F)CC3)n21 [Example 1.19, (2R)—N-{(5R,6S,8S)-5-Methyl-6-phenyl-3-[1-(trifluoromethyl)cyclopropyl]-5,6,7,8-tetrahydro[1,2,4]triazolo[4,3-a]pyridin-8-yl}-2′-oxo-1,1′,2′,3-tetrahydrospiro[indene-2,3′-pyrrolo[2,3-b]pyridine]-5-carboxamide] | 0.39 nM |
